Test results as given in patent publication US20260092076A1, “NOVEL COMPOUNDS” (Hoffmann-La Roche Inc., priority 2023, published 2026).

Key:
NLRP3 [1] = molecular target: T1, NLRP3 (Homo sapiens, UniProt Q96P20); test: Human whole blood IL-1β release assay; format: cell-based; conditions: human whole blood with 1 μg/ml LPS, compound 3 hours, nigericin 10 μM 1 hr, IL-1β by AlphaLisa
Description: For systemic delivery, the ability to inhibit NLRP3 when the compounds are present within the bloodstream is of great importance. For this reason, the NLRP3 inhibitory activity of a number of compounds in human whole blood was investigated in accordance with the following protocol. • Human whole blood in Li-heparin tubes was obtained from healthy donors from a volunteer donor panel. • Plate out 80 μl of whole blood containing 1 μg/ml of LPS in 96-well, clear bottom cell culture plate (Corning #3585) • Add 10 μl compound (8 points half-log dilution with 10 μM top dose) or vehicle (DMSO 0.1% FAC) to the appropriate wells • Incubate for 3 hours at 37° C., 5% CO2 • Add 10 μl nigericin (Sigma #N7143) (10 μM FAC) to all wells • Incubate for 1 hr at 37° C., 5% CO2 • At the end of the incubation period, spin plates at 300×g for 5 mins to pellet cells and remove 20 μl of supernatant and add to 96-well v-bottom plates for IL-1β analysis (note: these plates containing the supernatants can be stored at −80° C. to be analysed at a later date) • IL-1β was measured according to the manufacturer protocol (Perkin Elmer-AlphaLisa IL-1 Kit AL220F-5000) • IC50 data is fitted to a non-linear regression equation (log inhibitor vs response-variable slope 4-parameters)

NLRP3 [2] = molecular target: T1, NLRP3; test: THP-1 cells pyroptosis assay; format: cell-based; parameters: Seed THP-1 cells (25,000 cells/well) containing 1.0 μg/ml LPS in 40 μl of RPMI medium; host or cells: THP-1 cells, LPS-primed, nigericin-stimulated; conditions: THP-1 cells with 1.0 μg/ml LPS, compound 3 hours, nigericin 5 μM 1 hr, resazurin readout
Description: THP-1 cells (ATCC #TIB-202) were grown in RPMI containing L-glutamine (Gibco #11835) supplemented with 1 mM sodium pyruvate (Sigma #S8636) and penicillin (100 units/ml)/streptomycin (0.1 mg/ml) (Sigma #P4333) in 10% Fetal Bovine Serum (FBS) (Sigma #F0804). The cells were routinely passaged and grown to confluency (˜10^6 cells/ml). On the day of the experiment, THP-1 cells were harvested and resuspended into RPMI medium (without FBS). The cells were then counted and viability (>90%) checked by Trypan blue (Sigma #T8154). Appropriate dilutions were made to give a concentration of 625,000 cells/ml. To this diluted cell solution was added LPS (Sigma #L4524) to give a 1 μg/ml Final Assay Concentration (FAC). 40 μl of the final preparation was aliquoted into each well of a 96-well plate. The plate thus prepared was used for compound screening.
The following method step-by-step assay was followed for compound screening. • Seed THP-1 cells (25,000 cells/well) containing 1.0 μg/ml LPS in 40 μl of RPMI medium (without FBS) in 96-well, black walled, clear bottom cell culture plates coated with poly-D-lysine (VWR #734-0317) • Add 5 μl compound (8 points half-log dilution, with 10 μM top dose) or vehicle (DMSO 0.1% FAC) to the appropriate wells • Incubate for 3 hours at 37° C., 5% CO2 • Add 5 μl nigericin (Sigma #N7143) (FAC 5 μM) to all wells • Incubate for 1 hr at 37° C., 5% CO2 • At the end of the incubation period, spin plates at 300×g for 3 mins and remove supernatant • Then add 50 μl of resazurin (Sigma #R7017) (FAC 100 μM resazurin in RPMI medium without FBS) and incubate plates for a further 1-2 hours at 37° C. and 5% CO2 • Plates were read in an Envision reader at Ex 560 nm and Em 590 nm • IC50 data is fitted to a non-linear regression equation (log inhibitor vs response-variable slope 4-parameters)

T1 sequence (Q96P20 whole entry): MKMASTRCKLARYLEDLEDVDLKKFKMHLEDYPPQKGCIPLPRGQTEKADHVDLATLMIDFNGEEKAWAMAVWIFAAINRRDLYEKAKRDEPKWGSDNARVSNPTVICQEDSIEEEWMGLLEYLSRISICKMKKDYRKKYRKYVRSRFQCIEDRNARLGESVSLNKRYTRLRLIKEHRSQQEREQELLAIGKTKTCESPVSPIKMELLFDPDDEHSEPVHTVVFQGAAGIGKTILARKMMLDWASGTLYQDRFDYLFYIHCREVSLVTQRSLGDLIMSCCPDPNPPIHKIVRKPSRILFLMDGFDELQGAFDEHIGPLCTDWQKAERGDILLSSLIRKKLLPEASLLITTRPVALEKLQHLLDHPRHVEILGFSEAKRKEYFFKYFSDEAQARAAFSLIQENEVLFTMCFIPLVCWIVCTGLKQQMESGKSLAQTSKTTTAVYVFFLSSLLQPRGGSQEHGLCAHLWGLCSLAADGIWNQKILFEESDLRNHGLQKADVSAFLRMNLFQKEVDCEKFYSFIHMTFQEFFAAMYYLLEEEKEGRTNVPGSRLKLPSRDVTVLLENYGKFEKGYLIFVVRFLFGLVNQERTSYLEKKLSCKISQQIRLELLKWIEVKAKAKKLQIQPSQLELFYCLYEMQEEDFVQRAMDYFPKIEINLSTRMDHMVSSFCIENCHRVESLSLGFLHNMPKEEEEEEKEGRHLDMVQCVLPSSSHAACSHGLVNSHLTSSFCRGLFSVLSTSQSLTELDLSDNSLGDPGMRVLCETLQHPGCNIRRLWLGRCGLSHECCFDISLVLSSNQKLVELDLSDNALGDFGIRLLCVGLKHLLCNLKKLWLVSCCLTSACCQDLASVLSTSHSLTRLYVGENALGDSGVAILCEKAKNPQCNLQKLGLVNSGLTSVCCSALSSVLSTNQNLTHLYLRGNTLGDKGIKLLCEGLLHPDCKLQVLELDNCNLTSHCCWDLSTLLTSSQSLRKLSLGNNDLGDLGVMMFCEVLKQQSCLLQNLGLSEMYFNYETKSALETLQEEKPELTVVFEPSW

| Structure (SMILES) | IC50 (NLRP3 [1]) [nM] | IC50 (NLRP3 [2]) [nM] |
| --- | --- | --- |
| Cc1cc(Cl)cc(O)c1-c1ccc2oc(N3CCc4n[nH]cc4C3)nc2n1 [Example 25, 5-Chloro-3-methyl-2-[2-(2,4,6,7-tetrahydropyrazolo[4,3-c]pyridin-5-yl)oxazolo[4,5-b]pyridin-5-yl]phenol] | 142 | 25.6 |
| Cc1cc(C(F)F)cc(O)c1-c1ccc2oc(N3CCc4ncncc4C3)nc2n1 [Example 26, 5-(Difluoromethyl)-2-[2-(7,8-dihydro-5H-pyrido[4,3-d]pyrimidin-6-yl)oxazolo[4,5-b]pyridin-5-yl]-3-methyl-phenol] | 166 | 46.7 |
| Cc1cc(Cl)cc(O)c1-c1ccc2oc(N3CCc4cc(=O)[nH]cc4C3)nc2n1 [Example 27, 7-[5-(4-Chloro-2-hydroxy-6-methyl-phenyl)oxazolo[4,5-b]pyridin-2-yl]-2,5,6,8-tetrahydro-2,7-naphthyridin-3-one] | 423 | 52.2 |
| Cc1cc(Cl)cc(O)c1-c1cnc2oc(N3Cc4ccncc4C3)nc2n1 [Example 29, 5-Chloro-2-[2-(1,3-dihydropyrrolo[3,4-c]pyridin-2-yl)oxazolo[4,5-b]pyrazin-5-yl]-3-methyl-phenol; formic acid] | 35.9 | 2.1 |
| OCc1cc(Cl)cc(O)c1-c1cnc2oc(N3Cc4ccncc4C3)nc2n1 [Example 30, 5-Chloro-2-[2-(1,3-dihydropyrrolo[3,4-c]pyridin-2-yl)oxazolo[4,5-b]pyrazin-5-yl]-3-(hydroxymethyl)phenol] | 326 | 24.8 |
| Cc1cc(Cl)cc(O)c1-c1ccc2oc(N3CCc4ncncc4C3)nc2n1 [Example 31, 5-Chloro-2-[2-(7,8-dihydro-5H-pyrido[4,3-d]pyrimidin-6-yl)oxazolo[4,5-b]pyridin-5-yl]-3-methyl-phenol] | 345 | 17.9 |
| COc1ncc2c(n1)CCN(c1nc3nc(-c4c(C)cc(Cl)cc4O)ccc3o1)C2 [Example 32, 5-Chloro-2-[2-(2-methoxy-7,8-dihydro-5H-pyrido[4,3-d]pyrimidin-6-yl)oxazolo[4,5-b]pyridin-5-yl]-3-methyl-phenol] | 285 | 24.9 |
| Cc1cc(Cl)cc(O)c1-c1ccc2oc(N3CCc4[nH]c(=O)ncc4C3)nc2n1 [Example 36, 6-[5-(4-Chloro-2-hydroxy-6-methyl-phenyl)oxazolo[4,5-b]pyridin-2-yl]-1,5,7,8-tetrahydropyrido[4,3-d]pyrimidin-2-one] | 168 | 46.3 |
| Cc1cc(Cl)cc(O)c1-c1ccc2oc(N3CCc4[nH]c(=O)ccc4C3)nc2n1 [Example 37, 6-[5-(4-Chloro-2-hydroxy-6-methyl-phenyl)oxazolo[4,5-b]pyridin-2-yl]-1,5,7,8-tetrahydro-1,6-naphthyridin-2-one] | 676 | 71.1 |
| Cc1cc(Cl)cc(O)c1-c1ccc2oc(N3Cc4cc(=O)[nH]nc4C3)nc2n1 [Example 38, 6-[5-(4-chloro-2-hydroxy-6-methyl-phenyl)oxazolo[4,5-b]pyridin-2-yl]-5,7-dihydro-2H-pyrrolo[3,4-c]pyridazin-3-one] | 168 | 22 |
| Cc1cc(C(F)(F)F)cc(O)c1-c1cnc2oc(N3Cc4cnc(O)cc4C3)nc2n1 [Example 43, 2-[5-[2-Hydroxy-6-methyl-4-(trifluoromethyl)phenyl]oxazolo[4,5-b]pyrazin-2-yl]-1,3-dihydropyrrolo[3,4-c]pyridin-6-ol; 2,2,2-trifluoroacetic acid] | 128 | 1.7 |

Continued, values first:

| IC50 (NLRP3 [1]) [nM] | IC50 (NLRP3 [2]) [nM] | Structure (SMILES) |
| --- | --- | --- |
| 2350 | 6.9 | Cc1cc(C(F)(F)F)cc(O)c1-c1ccc2oc(N3Cc4cncnc4C3)nc2n1 [Example 18, 2-[2-(5,7-Dihydropyrrolo[3,4-d]pyrimidin-6-yl)oxazolo[4,5-b]pyridin-5-yl]-3-methyl-5-(trifluoromethyl)phenol] |
| 962 | 11.1 | Cc1cc(C(F)(F)F)cc(O)c1-c1ccc2oc(N3CCc4cc(=O)[nH]cc4C3)nc2n1 [Example 19, 7-[5-[2-Hydroxy-6-methyl-4-(trifluoromethyl)phenyl]oxazolo[4,5-b]pyridin-2-yl]-2,5,6,8-tetrahydro-2,7-naphthyridin-3-one] |
| 1450 | 4.2 | Cc1cc(C(F)(F)F)cc(O)c1-c1ccc2oc(N3Cc4ccc(=O)[nH]c4C3)nc2n1 [Example 20, 6-[5-[2-Hydroxy-6-methyl-4-(trifluoromethyl)phenyl]oxazolo[4,5-b]pyridin-2-yl]-5,7-dihydro-1H-pyrrolo[3,4-b]pyridin-2-one] |
| 1960 | 22.3 | Cc1cc(C(F)(F)F)cc(O)c1-c1ccc2oc(N3Cc4ccc(=O)n(C)c4C3)nc2n1 [Example 21, 6-[5-[2-Hydroxy-6-methyl-4-(trifluoromethyl)phenyl]oxazolo[4,5-b]pyridin-2-yl]-1-methyl-5,7-dihydropyrrolo[3,4-b]pyridin-2-one] |
| ≥ 10000 | 20.7 | Cc1cc(C(F)(F)F)cc(O)c1-c1ccc2oc(N3Cc4cc(=O)n(C)nc4C3)nc2n1 [Example 22, 6-[5-[2-Hydroxy-6-methyl-4-(trifluoromethyl)phenyl]oxazolo[4,5-b]pyridin-2-yl]-2-methyl-5,7-dihydropyrrolo[3,4-c]pyridazin-3-one] |
| 192 | 23.6 | Cc1cc(C(F)(F)F)cc(O)c1-c1ccc2oc(N3CCc4ncncc4C3)nc2n1 [Example 24, 2-[2-(7,8-Dihydro-5H-pyrido[4,3-d]pyrimidin-6-yl)oxazolo[4,5-b]pyridin-5-yl]-3-methyl-5-(trifluoromethyl)phenol] |
